Drawing on PubChem BioAssay (NCI), this text covers GI50 and TGI for 9 molecules.

Among the test systems are A549 NSCLC; NCI-H522 lung; T-47D breast; SW-620 colon; SR leukemia; NCI-H23 lung; HOP-92 NSCLC; RXF 393 renal.
Holding throughout (assay): NCI-60 cell line screen, 48 h

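Values below derive from 48-hour exposures of cells grown in 96-well plates, with endpoints linearly interpolated between the two concentrations bracketing the appropriate inhibition level. The concentration for 50% growth inhibition is given as GI50. TGI: concentration producing complete growth inhibition.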

As for `NC(=O)CC1(O)C=C(Br)C(=O)C(Br)=C1`, the GI50 in the test on A549 NSCLC was 19 µM; in the test on NCI-H522 lung, 0.326 µM; with T-47D breast it was 2.57 µM; in the test on SW-620 colon, 1.77 µM; in the test with SR leukemia, 1.7 µM; in the test with NCI-H23 lung it was 8.99 µM. Besides, the GI50 in the test with HOP-92 NSCLC is 1.85 µM; with RXF 393 renal, 1.9 µM. Moreover, the TGI in the test with A549 NSCLC worked out at 37.8 µM; in the test on NCI-H522 lung it was 1.44 µM; in the test with T-47D breast it was 7.87 µM; in the test with SW-620 colon, 3.47 µM; in the test with SR leukemia it was 14.2 µM; with NCI-H23 lung it was 24.6 µM. Also, the figures for the TGI in the test on HOP-92 NSCLC and in the test on RXF 393 renal were 4.26 µM and 4.05 µM, respectively.
Turning to `O=c1c2ccccc2nc(-c2ccccc2Cl)n1-c1nnc(C(F)(F)F)s1`, the GI50 in the test with A549 NSCLC is 3.26 µM; in the test on NCI-H522 lung it was 2.43 µM; in the test with T-47D breast, 3.76 µM; with SW-620 colon, 3.4 µM; in the test with SR leukemia, 3.73 µM; in the test with NCI-H23 lung it was 3.23 µM. The figures for the GI50 in the test with HOP-92 NSCLC and in the test with RXF 393 renal were 0.514 µM and 2.77 µM, respectively. Further, the TGI is more than 100 µM in the test with A549 NSCLC; 8.25 µM in the test on NCI-H522 lung; more than 100 µM in the test with T-47D breast; 15.9 µM with SW-620 colon; 24.6 µM in the test on SR leukemia; 17.3 µM in the test on NCI-H23 lung. Besides, the TGI in the test on HOP-92 NSCLC was found to be 3.43 µM; in the test on RXF 393 renal, 14.4 µM.
Consider `CCN(CC)CCC(CNc1ccnc2cc(Cl)ccc12)c1ccccc1` (stereo not drawn), for which the GI50 was 11.6 µM in the test with A549 NSCLC; 2.58 µM in the test with NCI-H522 lung; 2.85 µM with T-47D breast; 4.81 µM with SW-620 colon; 2.23 µM with SR leukemia; 11.5 µM in the test on NCI-H23 lung. Further, the GI50 in the test with HOP-92 NSCLC was 4.51 µM; with RXF 393 renal, 2.3 µM. Also, the TGI in the test on A549 NSCLC stood at 26.3 µM; in the test with NCI-H522 lung it was 11.7 µM; with T-47D breast it was 8.08 µM; with SW-620 colon, 22.2 µM; with SR leukemia, 8.48 µM; in the test on NCI-H23 lung, 38.8 µM. Further, the TGI is 21 µM with HOP-92 NSCLC and 5.65 µM in the test on RXF 393 renal.
With `O=C(COc1ccc(OCC(=O)N2C(=O)CN(c3ccccc3)C2=S)cc1)N1C(=O)CN(c2ccccc2)C1=S`, the GI50 with A549 NSCLC was more than 25 µM; with NCI-H522 lung, more than 25 µM; in the test on T-47D breast, more than 25 µM; in the test on SW-620 colon, more than 25 µM; with SR leukemia, more than 100 µM; with NCI-H23 lung it was more than 25 µM. The GI50 with RXF 393 renal was more than 25 µM. For the same molecule, the TGI with A549 NSCLC, in the test with NCI-H522 lung, in the test on T-47D breast, with SW-620 colon, in the test with SR leukemia and with NCI-H23 lung was more than 100 µM in each case. The TGI in the test on HOP-92 NSCLC and in the test with RXF 393 renal was more than 100 µM in each case.
Consider `COc1cccc(C2=C(c3cn(C)c4cc(F)ccc34)C(=O)NC2=O)c1`, for which the GI50 with A549 NSCLC was more than 17.4 µM; in the test on NCI-H522 lung, more than 15.9 µM; with T-47D breast it was 15.3 µM; in the test with SW-620 colon it was 13.1 µM; in the test on SR leukemia, 6.72 µM; with NCI-H23 lung, more than 25 µM. The GI50 in the test with HOP-92 NSCLC is more than 25 µM; in the test on RXF 393 renal, 8.79 µM. For the same molecule, the TGI in the test with A549 NSCLC, with NCI-H522 lung, in the test with T-47D breast, in the test with SW-620 colon, in the test on SR leukemia and with NCI-H23 lung was more than 25 µM each time. In addition, the TGI with HOP-92 NSCLC and in the test with RXF 393 renal was more than 25 µM each time.
For the molecule `CN1CCN(c2ccc(NC(=O)c3cncnc3Nc3ccc(OCc4cccc(F)c4)c(Cl)c3)cc2)CC1`, the GI50 with A549 NSCLC was 1.51 µM; with NCI-H522 lung, 1.14 µM; in the test on T-47D breast, 3.63 µM; in the test with SW-620 colon, 0.932 µM; in the test with SR leukemia, 0.939 µM; with NCI-H23 lung, 4.01 µM. Moreover, the GI50 was 1.95 µM in the test on HOP-92 NSCLC and 0.956 µM in the test on RXF 393 renal. The TGI was 5.05 µM with A549 NSCLC; 3.28 µM in the test on NCI-H522 lung; more than 50 µM in the test with T-47D breast; 1.88 µM in the test on SW-620 colon; 2.46 µM in the test on SR leukemia; more than 50 µM in the test on NCI-H23 lung. The results for the TGI with HOP-92 NSCLC and in the test with RXF 393 renal were 18.1 µM and 1.9 µM, respectively.
Consider `O=C1c2cccnc2C(=O)c2c1c(C(=O)NCCn1ccnc1)c1ccccn21`, for which the GI50 in the test on A549 NSCLC is 1.6 µM; in the test on NCI-H522 lung, 1.82 µM; with T-47D breast, 3.24 µM; in the test on SW-620 colon, 2.55 µM; in the test on SR leukemia, 2.2 µM; with NCI-H23 lung, 1.18 µM. Besides, the GI50 in the test on HOP-92 NSCLC is 9.28 µM; in the test on RXF 393 renal it was 3.88 µM. Further, the TGI with A549 NSCLC is 6.82 µM; with NCI-H522 lung, 4.67 µM; with T-47D breast, 11.6 µM; in the test with SW-620 colon, 11.1 µM; in the test with SR leukemia, more than 100 µM; in the test on NCI-H23 lung, 4.21 µM. The figures for the TGI with HOP-92 NSCLC and in the test with RXF 393 renal were 31.7 µM and 15.7 µM, respectively.
For the molecule `Cc1ccc(NC(=O)Nc2c(Cl)cccc2Cl)cn1`, the GI50 is 8.51 µM with A549 NSCLC; 12.5 µM in the test on NCI-H522 lung; 13.9 µM in the test on T-47D breast; 4.24 µM in the test with SW-620 colon; 3.89 µM in the test with SR leukemia; 26.1 µM in the test on NCI-H23 lung. For the same molecule, the GI50 in the test with HOP-92 NSCLC is 16.8 µM; with RXF 393 renal, 5.85 µM. In addition, the TGI in the test on A549 NSCLC was 43 µM; with NCI-H522 lung, 44 µM; in the test on T-47D breast, more than 100 µM; in the test on SW-620 colon, more than 100 µM; with SR leukemia, 22.7 µM; in the test on NCI-H23 lung it was more than 100 µM. For the same molecule, the TGI with HOP-92 NSCLC is more than 100 µM; with RXF 393 renal, 30.9 µM.
With `O=C(Nc1cccc(-n2cc(-c3ccncc3)c(-c3ccc(O)c(Cl)c3)n2)c1)c1cc(C(F)(F)F)cc(C(F)(F)F)c1`, the GI50 in the test with A549 NSCLC was 2.41 µM; in the test with NCI-H522 lung it was 1.56 µM; in the test on T-47D breast, 2.28 µM; with SW-620 colon, 12.2 µM; with SR leukemia, 1.43 µM; in the test on NCI-H23 lung it was 5.15 µM. In addition, the GI50 was 0.822 µM in the test on HOP-92 NSCLC and 1.25 µM in the test with RXF 393 renal. Moreover, the TGI with A549 NSCLC is more than 50 µM; in the test on NCI-H522 lung, 12.3 µM; with T-47D breast, 30.8 µM; in the test with SW-620 colon, more than 50 µM; in the test on SR leukemia it was 5.68 µM; with NCI-H23 lung, more than 50 µM. Also, the TGI in the test with HOP-92 NSCLC is 4.15 µM; in the test with RXF 393 renal, 9.1 µM.
